Where “and” joins values, the source holds several entries; their conditions need not be identical. Equal values may be shown once. ± gives the expanded uncertainty stated by the source.
Assay: molar heat capacity at constant pressure
Settings: 101.33 kPa, Liquid, Small sample (50 mg) DSC

Structure (SMILES): C=CCO [2-propenol]
- molar heat capacity at constant pressure (273.41 K): 134.94 ± 2.1 J/K/mol and 134.61 ± 2.1 J/K/mol
- molar heat capacity at constant pressure (278.52 K): 137.19 ± 2.1 J/K/mol and 137.35 ± 2.1 J/K/mol
- molar heat capacity at constant pressure (283.62 K): 139.43 ± 2.2 J/K/mol and 139.18 ± 2.2 J/K/mol
- molar heat capacity at constant pressure (288.72 K): 141.93 ± 2.2 J/K/mol and 141.68 ± 2.2 J/K/mol
- molar heat capacity at constant pressure (293.83 K): 144.34 ± 2.2 J/K/mol and 144.17 ± 2.2 J/K/mol
- molar heat capacity at constant pressure (298.93 K): 146.67 ± 2.3 J/K/mol and 146.5 ± 2.3 J/K/mol
- molar heat capacity at constant pressure (304.04 K): 149.16 ± 2.3 J/K/mol and 149.08 ± 2.3 J/K/mol
- molar heat capacity at constant pressure (309.14 K): 152.32 ± 2.4 J/K/mol and 151.82 ± 2.4 J/K/mol
- molar heat capacity at constant pressure (314.25 K): 154.82 ± 2.4 J/K/mol and 154.4 ± 2.4 J/K/mol
- molar heat capacity at constant pressure (319.35 K): 157.23 ± 2.4 J/K/mol and 157.06 ± 2.4 J/K/mol
- molar heat capacity at constant pressure (324.46 K): 160.14 ± 2.5 J/K/mol and 160.3 ± 2.5 J/K/mol

Structure (SMILES): OCC1CCCCC1 [cyclohexylmethanol]
- molar heat capacity at constant pressure (258.09 K): 199.13 ± 3.1 J/K/mol and 198.88 ± 3.1 J/K/mol
- molar heat capacity at constant pressure (263.2 K): 202.87 ± 3.1 J/K/mol and 202.54 ± 3.1 J/K/mol
- molar heat capacity at constant pressure (268.3 K): 207.03 ± 3.2 J/K/mol and 206.61 ± 3.2 J/K/mol
- molar heat capacity at constant pressure (273.41 K): 211.52 ± 3.3 J/K/mol and 210.94 ± 3.3 J/K/mol
- molar heat capacity at constant pressure (278.51 K): 215.68 ± 3.3 J/K/mol and 215.18 ± 3.3 J/K/mol
- molar heat capacity at constant pressure (283.62 K): 220.83 ± 3.4 J/K/mol and 219.83 ± 3.4 J/K/mol
- molar heat capacity at constant pressure (288.72 K): 225.32 ± 3.5 J/K/mol and 224.74 ± 3.5 J/K/mol
- molar heat capacity at constant pressure (293.83 K): 230.56 ± 3.6 J/K/mol and 229.98 ± 3.6 J/K/mol
- molar heat capacity at constant pressure (298.93 K): 236.46 ± 3.7 J/K/mol and 235.55 ± 3.6 J/K/mol
- molar heat capacity at constant pressure (304.04 K): 242.28 ± 3.8 J/K/mol and 241.62 ± 3.7 J/K/mol
- molar heat capacity at constant pressure (309.14 K): 247.94 ± 3.8 J/K/mol and 247.36 ± 3.8 J/K/mol
- molar heat capacity at constant pressure (314.25 K): 254.26 ± 3.9 J/K/mol and 253.34 ± 3.9 J/K/mol
- molar heat capacity at constant pressure (319.35 K): 260.24 ± 4 J/K/mol and 259.49 ± 4 J/K/mol
- molar heat capacity at constant pressure (324.46 K): 265.98 ± 4.1 J/K/mol and 265.56 ± 4.1 J/K/mol
- molar heat capacity at constant pressure (329.57 K): 271.38 ± 4.2 J/K/mol and 270.55 ± 4.2 J/K/mol
- molar heat capacity at constant pressure (334.67 K): 276.54 ± 4.3 J/K/mol and 275.87 ± 4.3 J/K/mol
- molar heat capacity at constant pressure (339.77 K): 281.78 ± 4.4 J/K/mol and 280.86 ± 4.3 J/K/mol
- molar heat capacity at constant pressure (344.88 K): 287.35 ± 4.5 J/K/mol and 286.52 ± 4.4 J/K/mol
- molar heat capacity at constant pressure (349.98 K): 292.34 ± 4.5 J/K/mol and 291.51 ± 4.5 J/K/mol
- molar heat capacity at constant pressure (355.09 K): 296.83 ± 4.6 J/K/mol and 296.33 ± 4.6 J/K/mol

Structure (SMILES): OCCC1CCCCC1 [2-cyclohexylethanol]
- molar heat capacity at constant pressure (253.5 K): 222 ± 3.4 J/K/mol and 223.33 ± 3.5 J/K/mol
- molar heat capacity at constant pressure (256.05 K): 226.07 ± 3.5 J/K/mol and 226.32 ± 3.5 J/K/mol
- molar heat capacity at constant pressure (260.65 K): 229.4 ± 3.5 J/K/mol and 229.73 ± 3.6 J/K/mol
- molar heat capacity at constant pressure (265.75 K): 233.72 ± 3.6 J/K/mol and 233.97 ± 3.6 J/K/mol
- molar heat capacity at constant pressure (270.86 K): 238.29 ± 3.7 J/K/mol and 238.21 ± 3.7 J/K/mol
- molar heat capacity at constant pressure (275.96 K): 242.12 ± 3.8 J/K/mol and 242.2 ± 3.8 J/K/mol
- molar heat capacity at constant pressure (281.07 K): 246.19 ± 3.8 J/K/mol and 246.44 ± 3.8 J/K/mol
- molar heat capacity at constant pressure (286.17 K): 251.6 ± 3.9 J/K/mol and 251.26 ± 3.9 J/K/mol
- molar heat capacity at constant pressure (291.28 K): 256.67 ± 4 J/K/mol and 256.42 ± 4 J/K/mol
- molar heat capacity at constant pressure (296.38 K): 261.91 ± 4.1 J/K/mol and 262.07 ± 4.1 J/K/mol
- molar heat capacity at constant pressure (301.48 K): 267.56 ± 4.2 J/K/mol and 266.98 ± 4.1 J/K/mol
- molar heat capacity at constant pressure (306.59 K): 273.13 ± 4.2 J/K/mol and 273.21 ± 4.2 J/K/mol
- molar heat capacity at constant pressure (311.7 K): 278.7 ± 4.3 J/K/mol and 279.03 ± 4.3 J/K/mol
- molar heat capacity at constant pressure (316.81 K): 284.35 ± 4.4 J/K/mol
- molar heat capacity at constant pressure (321.91 K): 290.17 ± 4.5 J/K/mol and 289.93 ± 4.5 J/K/mol
- molar heat capacity at constant pressure (327.01 K): 295.5 ± 4.6 J/K/mol and 295.58 ± 4.6 J/K/mol
- molar heat capacity at constant pressure (332.12 K): 301.15 ± 4.7 J/K/mol and 300.82 ± 4.7 J/K/mol
- molar heat capacity at constant pressure (337.22 K): 307.39 ± 4.8 J/K/mol and 306.64 ± 4.8 J/K/mol
- molar heat capacity at constant pressure (342.33 K): 313.87 ± 4.9 J/K/mol and 312.71 ± 4.8 J/K/mol
- molar heat capacity at constant pressure (347.43 K): 318.61 ± 4.9 J/K/mol and 317.95 ± 4.9 J/K/mol
- molar heat capacity at constant pressure (352.54 K): 323.27 ± 5 J/K/mol and 322.6 ± 5 J/K/mol

Structure (SMILES): OCCCC1CCCCC1 [3-cyclohexyl-1-propanol]
- molar heat capacity at constant pressure (258.09 K): 254.42 ± 3.9 J/K/mol and 254.84 ± 4 J/K/mol
- molar heat capacity at constant pressure (263.2 K): 258.91 ± 4 J/K/mol and 258.66 ± 4 J/K/mol
- molar heat capacity at constant pressure (268.3 K): 263.07 ± 4.1 J/K/mol and 262.65 ± 4.1 J/K/mol
- molar heat capacity at constant pressure (273.41 K): 267.64 ± 4.2 J/K/mol and 267.48 ± 4.1 J/K/mol
- molar heat capacity at constant pressure (278.51 K): 272.22 ± 4.2 J/K/mol and 271.97 ± 4.2 J/K/mol
- molar heat capacity at constant pressure (283.62 K): 277.37 ± 4.3 J/K/mol and 277.12 ± 4.3 J/K/mol
- molar heat capacity at constant pressure (288.72 K): 282.28 ± 4.4 J/K/mol
- molar heat capacity at constant pressure (293.83 K): 288.01 ± 4.5 J/K/mol and 287.76 ± 4.5 J/K/mol
- molar heat capacity at constant pressure (298.93 K): 293.5 ± 4.5 J/K/mol and 293.33 ± 4.5 J/K/mol
- molar heat capacity at constant pressure (304.04 K): 299.74 ± 4.7 J/K/mol
- molar heat capacity at constant pressure (309.14 K): 305.72 ± 4.7 J/K/mol and 305.64 ± 4.7 J/K/mol
- molar heat capacity at constant pressure (314.25 K): 311.63 ± 4.8 J/K/mol and 311.54 ± 4.8 J/K/mol
- molar heat capacity at constant pressure (319.35 K): 317.61 ± 4.9 J/K/mol and 317.7 ± 4.9 J/K/mol
- molar heat capacity at constant pressure (324.46 K): 323.6 ± 5 J/K/mol and 323.85 ± 5 J/K/mol
- molar heat capacity at constant pressure (329.56 K): 330.5 ± 5.1 J/K/mol and 330 ± 5.1 J/K/mol
- molar heat capacity at constant pressure (334.67 K): 335.9 ± 5.2 J/K/mol and 336.24 ± 5.2 J/K/mol
- molar heat capacity at constant pressure (339.77 K): 342.31 ± 5.3 J/K/mol and 342.39 ± 5.3 J/K/mol
- molar heat capacity at constant pressure (344.88 K): 348.46 ± 5.4 J/K/mol and 348.63 ± 5.4 J/K/mol
- molar heat capacity at constant pressure (349.98 K): 354.28 ± 5.5 J/K/mol and 354.61 ± 5.5 J/K/mol
- molar heat capacity at constant pressure (355.09 K): 360.35 ± 5.6 J/K/mol and 360.02 ± 5.6 J/K/mol
